{"source": "patent US20100297109A1", "about": "“METHODS FOR INHIBITING FASCIN” (Cornell University, priority 2007, published 2010)", "key": {"[1]": {"tested_on": "mouse embryonic fibroblast (MEF) cells", "assay": "Wound-healing assay, serum-induced migration of MEF cells", "type": "cell-based", "conditions": "200 μM"}, "villin": {"target": "T1, villin (Homo sapiens, UniProt P09327)", "T1 sequence (P09327 1-827)": "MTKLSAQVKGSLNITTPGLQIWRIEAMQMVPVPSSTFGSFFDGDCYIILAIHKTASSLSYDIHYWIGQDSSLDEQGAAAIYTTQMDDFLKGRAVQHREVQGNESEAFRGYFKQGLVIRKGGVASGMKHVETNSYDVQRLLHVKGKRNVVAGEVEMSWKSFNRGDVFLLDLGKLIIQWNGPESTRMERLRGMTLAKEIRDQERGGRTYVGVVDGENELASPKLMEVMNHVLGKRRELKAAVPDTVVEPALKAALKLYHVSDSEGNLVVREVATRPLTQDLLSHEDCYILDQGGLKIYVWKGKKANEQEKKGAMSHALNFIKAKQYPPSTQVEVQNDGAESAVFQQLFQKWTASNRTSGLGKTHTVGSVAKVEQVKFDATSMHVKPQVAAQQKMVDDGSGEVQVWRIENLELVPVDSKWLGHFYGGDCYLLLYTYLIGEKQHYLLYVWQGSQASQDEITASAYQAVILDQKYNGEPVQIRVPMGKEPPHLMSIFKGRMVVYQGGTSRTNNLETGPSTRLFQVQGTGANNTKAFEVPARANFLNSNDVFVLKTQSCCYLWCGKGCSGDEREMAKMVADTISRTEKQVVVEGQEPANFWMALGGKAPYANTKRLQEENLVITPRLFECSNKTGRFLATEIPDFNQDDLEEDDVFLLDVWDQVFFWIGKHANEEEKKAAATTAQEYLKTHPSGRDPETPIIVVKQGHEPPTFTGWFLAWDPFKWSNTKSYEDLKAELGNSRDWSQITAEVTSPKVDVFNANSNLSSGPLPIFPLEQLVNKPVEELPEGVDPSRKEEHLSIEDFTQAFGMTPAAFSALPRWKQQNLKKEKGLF", "assay": "Migration of fascin siRNA-treated 4T1 cells rescued with villin", "type": "cell-based", "set-up": "expressed in transfected cells; host or cells: 4T1 mouse mammary tumor cells treated with fascin siRNA", "conditions": "villin over-expression in fascin siRNA-treated 4T1 cells", "description": "(§1) Boyden Chamber Cell Migration Assay. Cells (5×10^4) suspended in starvation medium were added to the upper chamber of an insert (6.5 mm diameter, 8-micrometer pore size, Becton Dickenson), and the insert was placed in a 24-well dish containing starvation medium with or without 10% FBS (Yang et al. 2005, Shan et al. 2006). When used, inhibitors were added to both chambers. Migration assays were carried out for 4-6 hours and cells were fixed with 3.7% formaldehyde. Cells were stained with crystal violet staining solution, and cells on the upper side of the insert were removed with a cotton swab. Three randomly selected fields (10× objectives) on the lower side of the insert were photographed, and the migrated cells were counted. The migration was expressed as either the average number of migrated cells in a field or as percentage of migrated cells in positive control. Percentage was calculated with the formula P=100×(M−Mnc)/Mpc, where P is the percentage of migrated cells, M is the number of migrated cells, Mnc is the number of migrated cells in negative controls, and Mpc is the number of migrated cells in positive controls."}, "fascin [2]": {"target": "T2, fascin (Homo sapiens, UniProt Q16658)", "type": "biochemical", "set-up": "GST (N); made in house; host or cells: Escherichia coli BL21", "conditions": "fluorescence microscopy", "description": "Whole cell lysates from 4T1 mouse breast tumor cells were made. After preclearing the cell lysate with immobilized neutravidin biotin binding protein (Pierce, IL, USA) to remove biotin and avidin-binding proteins, the cell lysates were loaded to a column packed with the biotin-labeled macroketone (conjugated to neutravidin beads). A control column packed with free biotin and neutravidin beads was run side-by-side. After washing the column with 10 bed volumes of lysis buffer with 300 mM NaCl, the bound proteins were eluted with 0.1 M Glycine-HCl at pH 2.8 according to the manufacturer's instruction. […] Protein Expression and Purification. Recombinant GST-fascin fusion protein was produced in BL21 Escherichia coli. A 1-liter culture was grown to an A600 reading of 1.0 and then induced by addition of 0.3 mM isopropyl 1-thio-D-galactopyranoside (IPTG) for 12 hours at 25° C. Cells were flash frozen and then lysed by sonication in Tris-buffered saline. The supernatant was then incubated with glutathione-Sepharose for 2 h at 4° C. After extensive washing, GST-fascin was eluted and concentrated with a Centricon Plus-20 (Millipore). To remove the GST tag from the fusion protein, beads were incubated with thrombin overnight at 4° C. The supernatant was collected and concentrated. […] Actin bundling activity was measured by low speed centrifugation assay and fluorescence microscopy. […]"}, "fascin [3]": {"target": "T2, fascin", "assay": "Chamber migration of fascin siRNA-treated 4T1 cells rescued with human fascin", "type": "cell-based", "set-up": "expressed in transfected cells; host or cells: 4T1 mouse mammary tumor cells treated with mouse fascin siRNA 2", "conditions": "human fascin in fascin siRNA-treated 4T1 cells", "description": "as §1"}, "[4]": {"tested_on": "human prostate tumor PC-3 cells", "assay": "Cell migration assay, PC-3 cells", "type": "cell-based"}, "fascin [5]": {"target": "T2, fascin", "assay": "Electron microscopy of fascin-induced F-actin bundles", "type": "biochemical", "set-up": "GST (N); made in house; host or cells: Escherichia coli BL21"}}}
{"molecule": "COC1C=CCCCCC(=O)CCC(C)=CC(C)C1O", "note": "(stereo not shown) [macroketone, Migrastatin ketone]", "values": [{"measurement": "effect on serum-induced migration (wound-healing)", "setting": "[1]", "result": "had no effect"}, {"measurement": "sensitivity of rescued migration", "setting": "villin", "result": "insensitive"}, {"measurement": "inhibition of formation of F-actin bundles", "setting": "fascin [2]; fascin present", "result": "> 80", "unit": "%"}, {"measurement": "ability of fascin to bundle actin polymers", "setting": "fascin [2]; preincubation of fascin", "result": "decreased the ability of fascin to bundle actin polymers"}, {"measurement": "sensitivity of rescued migration", "setting": "fascin [3]", "result": "sensitive"}, {"measurement": "inhibition of migration", "setting": "[4]", "result": "inhibited the migration"}, {"measurement": "thickness of actin bundles", "setting": "fascin [5]", "result": "decreased the thickness of the bundles"}]}
